Data on one compound can be found in patent US11137392B2, “Cantilever sensors for molecule detection” (3P SENSE LIMITED, priority 2016, dated 2021).

Test [1] has as its system vancomycin susceptible receptor (VSR). Particulars: previous measurements (known cantilever); cited from earlier work.
Test [2] has the same test system. Description: Differential cantilever bending / surface stress of unpassivated VSR-functionalized cantilevers against Van. Format: binding. How it is done: Detection of cantilever bending response in case of optical readout is performed, for example, by using serial time multiplexed optical beam method with a single position sensitive detector, although other readouts such as electronic or diffraction can be used. The laser spot (about 100 μm diameter) is aligned onto the free end of each sensor where the accuracy of alignment is confirmed by heating test. The expected precision of laser spot alignment is determined by calculating the bending variation at the maximum bending signals between individual cantilever sensors. Well aligned cantilevers at the maximum bending signals should yield a relative standard deviation of the bending signals of about ≤10%, preferably about ≤5%, between them. Correlating the response signal to the presence or absence of the molecule to be detected includes a first step of calculating the net change in stress, using the mathematical model reported above, and then a second step of associating the net change in stress value to the presence of absence of the molecule and, in case of presence, to the concentration level of the molecule.
Case I: Simultaneous functionalization of Au(top) and Si(bottom) surfaces of cantilever arrays: To systematically alter both Au(top) and Si(bottom) surfaces into chemically active sensing layers, the arrays of eight rectangular cantilevers were subjected to surface capture molecules in micro-capillary glass tubes (King Precision Glass, Claremont, Calif., USA), arranged according to the cantilever pitch size of 250 μm. The alkanethiols of self-assembled monolayers (SAMs), namely vancomycin susceptible receptor (VSR˜0.6 kDa) analogues to bacterial cell wall precursors that present uncrosslinked peptide motifs terminating in the sequence lysine-D-alanine-D-alanine and ‘inert’ SAM molecule terminating in triethylene glycol (PEG) whose detailed structural sequences have been described previously were diluted in ethanol solution to yield total concentrations of: 0.1 μM, 1 μM, 10 μM, 50 μM, 100 μM, 1000 μM, 2000 μM, 3000 μM and 4000 μM. Individual VSR and PEG concentrations were injected into micro-capillary glass tubes and cantilevers were then incubated inside the capillaries for 20 min, washed three times with ethanol and stored in distilled water until usage. The functionalization procedure was carried out without pre-adsorbing resistive protein monolayer bovine serum albumin (BSA) or PEG-silane, known for blocking nonspecific interactions.
To tune the receptor footprint (area per each receptor molecule) for enhanced biodetectability and to achieve satisfactory quantitative drug-target measurements, certain steps within the functionalization protocol were addressed. The first task was to define the percentage ratio of VSR by incorporating a receptor molecule with second SAM-forming molecule PEG. The ratio of VSR and PEG molecules dissolved in ethanol was varied to yield a total concentration in the solution of 1 μM, for which full surface coverage was established. The corresponding mixed ethanolic thiol solutions of VSR and ‘inert’ PEG mixed in the ratio of 30%, 70%, 90%, and 100% were used to coat cantilever arrays.
FIG. 1a-b show the functionalization of both surfaces of the cantilever with a self-assembled monolayer (SAM) of vancomycin (Van) susceptible receptor (VSR ˜0.6 kDa) analogues of the bacterial cell wall precursors that present uncrosslinked peptide motifs terminating in the sequence lysine-D-alanine-D-alanine. To eliminate the artifacts that produce non-specific signals differential measurements were performed in which reference polyethylene glycol(PEG)-coated cantilever bending signals were subtracted from the receptor signals.
This functionalization was performed without pre-adsorbing a resistive protein monolayer of bovine serum albumin (BSA) or PEG-silane, which are known to block non-specific interactions. […]

For `CN[C@H](CC(C)C)C(=O)N[C@H]1C(=O)N[C@@H](CC(N)=O)C(=O)N[C@H]2C(=O)N[C@H]3C(=O)N[C@H](C(=O)N[C@H](C(=O)O)c4cc(O)cc(O)c4-c4cc3ccc4O)[C@H](O)c3ccc(c(Cl)c3)Oc3cc2cc(c3O[C@@H]2O[C@H](CO)[C@@H](O)[C@H](O)[C@H]2O[C@H]2C[C@](C)(N)[C@H](O)[C@H](C)O2)Oc2ccc(cc2Cl)[C@H]1O` [Van, vancomycin], the “Net stress, previous measurements” value in test [1] is reported as 33 mN m^−1. In addition, in test [2] (Van 250 μM, VSR 50 μM in functionalizing solution, unpassivated cantilever), the “Compressive stress (differential surface stress)” value is 52 mN m^−1. In addition, the “Stress signal σmax” value in test [2] (Van 250 μM, VSR concentration beyond 50 μM (regime II)) is “≈ 5 mN m^−1”. In test [2] (Van 250 μM, VSR/PEG 100% receptor, total concentration 1 μM), the Cantilever stress result is “highest stress”. Besides, the Cantilever deflection signal entry in test [2] (Van 250 μM, VSR/PEG ~30% receptor, total concentration 1 μM) was “negligible”. The “Differential stress / bending response on reference PEG-coated cantilevers” value in test [2] (Van 250 μM, reference PEG-coated cantilevers) was “no bending response and zero”. The “Mechanical response on uncoated Au and Si surfaces” value in test [2] (in the presence of Van, uncoated Au and Si surfaces as control) is on record as “undetectable”.
